Source: patent publication US20150246141A1, “DIAGNOSTIC AGENTS WITH ENHANCED SENSITIVITY/SPECIFICITY” (BEN-GURION UNIVERSITY OF THE NEGEV RESEARCH AND DEVELOPMENT …, priority 2012, published 2015)

Tests used:
[1] = test system: LS-174T human colorectal adenocarcinoma; assay: Murine orthotopic colorectal tumor model LS-174T, intraluminal instillation, imaging of excised colon and organs; format: in vivo, female athymic nude mice; conditions: polymer applied intraluminally
Protocol: The murine orthotopic colorectal tumor model LS-174T human colorectal adenocarcinoma cells (3×10^7 cells) were injected (600 μL) into the descending colonic wall of 13 anesthetized, female athymic nude mice, after an over night fast. […] Histopathological examination was performed on paraffin fixed colonic tissue specimens, after an H&E stain and verified that the carcinoma infiltrated within the mucosa, submucosa, and muscular layer
The mice were sacrificed 3 hrs post treatment, their colons exteriorized, separated, cut open, spread on a transparent film with the mucosal aspects upwards, and imaged by the Odyssey® Infrared Imaging System (Li-Cor Biosciences, Lincoln, Nebr., USA.) with excitation wavelength of 780 nm and emission wavelength of 800 nm.

[2] = test system: LS174T tumors; assay: Intraluminal (intracolonic) administration to mice bearing rectal LS174T tumors, NIR imaging of excised colon; format: in vivo, female athymic nude mice
Protocol: […] Then, the mice were sacrificed and the colons were removed. Each colon was spread on a clear film, and imaging was performed using the Odyssey® Infrared Imaging System (Li-Cor Biosciences, Lincoln, Nebr., USA.), with excitation wavelength of 780 nm and emission wavelength of 800 nm Results:

[3] = test system: cancerous colorectal tissue; assay: In situ labeling of surgically excised human colorectal cancer tissue specimens; conditions: PBS, 0.2 mg/ml; 20 minutes incubation, washed three times
Protocol: Polymer solution was dropped onto fresh surgical tissue specimens that were received 15 minutes after surgical excision. After 20 minutes of incubation with the polymeric probe, tissues were washed three times with a large volume of PBS. Tissues were then imaged immediately using the Odyssey® Infrared Imaging System (Li-Cor Biosciences, Lincoln, Nebr., USA.) with excitation wavelength of 780 nm and emission wavelength of 800 nm.

[4] = test system: HT29 tumors; assay: Intraluminal administration to mouse HT-29 tumor models, NIR imaging; format: in vivo, female athymic nude mice
Protocol: 20 min later the colon was washed extensively with PBS and then were allowed to recover for 3 h. Then, the mice were sacrificed and the colons were removed. Each colon was spread on a clear film, and imaging was performed using the Odyssey® Infrared Imaging System (Li-Cor Biosciences, Lincoln, Nebr., USA.), with excitation wavelength of 780 nm and emission wavelength of 800 nm Results:
FIGS. 4C and 4D provide results of similarly treated animals, 2 hours post-administration.

[5] = immediately post administration of 0.1 mg/ml (200 μg)

## HPMA copolymer bearing IR783-S-Ph-COOH [P-(AP-IR783)]
[1]
  accumulation in cancerous tissue: Selective accumulation
[2]; 40 μg per mouse (0.2 mg/ml), images taken at 4 hours following washing
  background staining in control mice without tumors: very little background staining
[2]; 40 μg per mouse (0.2 mg/ml), tumors verified by pathologic evaluation
  staining in samples taken from mice having tumors: clear staining was evident
[2]; intraluminal application
  tumor associated-vasculature staining: staining was evident
[2]; polymer applied intraluminally, LS174T tumor model
  accumulation in cancerous tissue: Selective accumulation
[3]
  binding to near healthy tissue: very low binding
  staining at cancerous region in the tissue (polyp and tumor): markedly intense staining
[4]; [5]
  staining of region 4 (no tumors macroscopically; tumors in the submucosa): stained intensely
  staining of surface exposed regions (boxes 2, 3): stained intensely
[4]; polymer applied intraluminally, HT-29 tumor model
  accumulation in cancerous tissue: Selective accumulation
